Experimental data as given in patent US9987276B2 (Celgene CAR LLC, priority 2008, dated 2018).
Like-named read-outs stand apart in the source and are kept apart here.

Columns and labels:
BTK = BTK (Homo sapiens (Human), UniProt Q06187); assay: Omnia assay for potency assessment against BTK; type: biochemical; conditions: [BTK]=5 nM, Omnia assay; read-out: BTK Inhibition (IC50)
Description: The modified BTK-optimized reagent conditions for the above protocol are:
[BTK]=5 nM, [ATP]=[…], [Y5-Sox]=[…] (ATP KMapp˜[…]).

ITK = ITK (Homo sapiens (Human), UniProt Q08881); assay: Omnia assay for potency assessment against active forms of ITK kinase; type: biochemical; conditions: [ITK]=10 nM, [ATP]=25, [Y6-Sox]=10 μM; read-out: ITK Inhibition
Chain of ITK (Q08881 whole entry): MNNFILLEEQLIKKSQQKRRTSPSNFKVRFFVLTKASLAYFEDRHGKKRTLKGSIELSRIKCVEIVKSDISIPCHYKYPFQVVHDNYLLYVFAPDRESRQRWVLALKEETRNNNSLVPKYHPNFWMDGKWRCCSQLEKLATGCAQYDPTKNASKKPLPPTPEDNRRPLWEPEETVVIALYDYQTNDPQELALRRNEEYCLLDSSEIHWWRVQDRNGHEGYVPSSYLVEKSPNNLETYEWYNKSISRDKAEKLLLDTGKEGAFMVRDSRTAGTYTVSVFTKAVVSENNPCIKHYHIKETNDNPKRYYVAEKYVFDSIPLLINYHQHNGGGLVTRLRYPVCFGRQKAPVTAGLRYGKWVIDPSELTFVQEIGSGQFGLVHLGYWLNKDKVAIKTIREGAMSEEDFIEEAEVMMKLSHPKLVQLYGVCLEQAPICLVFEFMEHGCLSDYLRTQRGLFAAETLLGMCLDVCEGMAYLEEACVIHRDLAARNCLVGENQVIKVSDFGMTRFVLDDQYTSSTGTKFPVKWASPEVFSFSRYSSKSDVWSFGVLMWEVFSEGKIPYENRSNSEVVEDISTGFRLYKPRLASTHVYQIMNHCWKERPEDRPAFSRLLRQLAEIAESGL
Description: [ITK]=10 nM, [ATP]=25 [Y6-Sox]=10 μM (ATP KMapp=33 μM).

EGFR-WT = EGFR-WT (Homo sapiens (Human), UniProt P00533); assay: Omnia assay for potency assessment against EGFR (WT)
Chain of EGFR-WT (P00533 668-1210): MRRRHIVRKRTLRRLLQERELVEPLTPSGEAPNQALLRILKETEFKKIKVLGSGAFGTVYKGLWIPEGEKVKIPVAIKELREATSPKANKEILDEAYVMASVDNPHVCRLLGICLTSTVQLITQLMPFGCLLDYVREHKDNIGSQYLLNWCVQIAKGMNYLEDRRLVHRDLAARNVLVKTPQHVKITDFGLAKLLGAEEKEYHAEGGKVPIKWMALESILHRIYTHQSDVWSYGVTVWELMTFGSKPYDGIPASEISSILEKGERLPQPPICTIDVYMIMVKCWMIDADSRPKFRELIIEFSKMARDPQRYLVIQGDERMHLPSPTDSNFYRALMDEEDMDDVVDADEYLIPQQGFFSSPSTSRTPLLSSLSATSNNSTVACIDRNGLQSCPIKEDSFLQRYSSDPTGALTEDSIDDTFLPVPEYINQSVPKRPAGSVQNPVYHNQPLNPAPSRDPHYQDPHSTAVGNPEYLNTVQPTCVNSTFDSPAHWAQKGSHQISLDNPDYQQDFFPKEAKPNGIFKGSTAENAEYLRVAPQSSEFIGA

[1] = read-out: EGFR (wild type inhibition), EGFR wild type

Chain of BTK (Q06187 whole entry): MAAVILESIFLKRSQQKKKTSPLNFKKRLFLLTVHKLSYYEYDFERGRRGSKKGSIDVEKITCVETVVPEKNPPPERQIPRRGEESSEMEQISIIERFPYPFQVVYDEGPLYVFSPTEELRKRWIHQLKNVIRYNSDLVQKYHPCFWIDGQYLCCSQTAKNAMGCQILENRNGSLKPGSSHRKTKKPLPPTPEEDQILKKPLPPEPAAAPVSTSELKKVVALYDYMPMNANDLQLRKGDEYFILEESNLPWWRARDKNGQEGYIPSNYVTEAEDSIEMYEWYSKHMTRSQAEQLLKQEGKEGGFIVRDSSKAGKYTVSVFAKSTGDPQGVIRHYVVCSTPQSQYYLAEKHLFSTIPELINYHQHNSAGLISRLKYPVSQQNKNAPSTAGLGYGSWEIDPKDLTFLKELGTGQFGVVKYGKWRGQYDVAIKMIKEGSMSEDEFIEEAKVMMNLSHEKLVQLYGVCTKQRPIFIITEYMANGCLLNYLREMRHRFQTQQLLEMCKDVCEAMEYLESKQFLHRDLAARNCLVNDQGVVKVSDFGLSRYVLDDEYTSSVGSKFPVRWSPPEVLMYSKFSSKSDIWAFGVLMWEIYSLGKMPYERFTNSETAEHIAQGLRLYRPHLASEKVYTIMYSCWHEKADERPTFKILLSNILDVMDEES

Structure (SMILES) | IC50 (BTK) [nM] | IC50 (ITK) [nM] | IC50 (EGFR-WT) [nM] | IC50 (EGFR-WT; [1]) [nM]
C=CC(=O)Nc1cccc(Nc2nc(Nc3cccc(OCCCNC(=O)OC(C)(C)C)c3)ncc2F)c1 [Compound I-183, tert-butyl 3-(3-(4-(3-acrylamidophenylamino)-5-fluoropyrimidin-2-ylamino)phenoxy)propylcarbamate] | < 10 | 100 to 1000 | – | 1000 to 10000
C=CC(=O)Nc1cccc(Oc2nc(Nc3cccc(OC)c3)ncc2C(=O)Nc2ccccc2)c1 [Compound I-200, 4-(3-acrylamidophenoxy)-2-(3-methoxyphenylamino)-pyrimidine-5-carboxylic acid phenylamide] | < 10 | > 10000 | – | < 10
COCCOc1ccc(Nc2ncc(F)c(Nc3cccc(NC(=O)/C=C/CN4CC[C@@H](O)C4)c3)n2)cc1 [Compound I-89, (R,E)-N-(3-(5-fluoro-2-(4-(2-methoxyethoxy)phenylamino)pyrimidin-4-ylamino)phenyl)-4-(3-hydroxypyrrolidin-1-yl)but-2-enamide] | < 10 | 10 to 100 | 10 to 100 | –
C=CC(=O)Nc1cccc(Nc2nc(Nc3ccc(O[C@@H]4CCOC4)nc3)ncc2F)c1 [Compound I-69, (R)—N-(3-(5-fluoro-2-(6-(tetrahydrofuran-3-yloxy)pyridin-3-ylamino)pyrimidin-4-ylamino)phenyl)acrylamide] | < 10 | 10 to 100 | 10 to 100 | –
C=CC(=O)Nc1cccc(Nc2nc(Nc3cccc(OCCCNC(=O)CCCC[C@@H]4SC[C@@H]5NC(=O)N[C@@H]54)c3)ncc2C)c1 [Compound I-237, N-(3-(3-(4-(3-acrylamidophenylamino)-5-methylpyrimidin-2-ylamino)phenoxy)propyl)-5-((3aS,4S,6aR)-2-oxohexahydro-1H-thieno[3,4-d]imidazol-4-yl)pentanamide] | < 10 | < 10 | 10 to 100 | –
C=CC(=O)Nc1cccc(Nc2nc(Nc3ccc(OCC4CCN(C)CC4)cc3)ncc2F)c1 [Compound I-90, N-(3-(5-fluoro-2-(4-((1-methylpiperidin-4-yl)methoxy)phenylamino)pyrimidin-4-ylamino)phenyl)acrylamide] | < 10 | < 10 | – | < 10
C=CC(=O)Nc1cccc(Nc2nc(Nc3ccc4c(cnn4C)c3)ncc2F)c1 [Compound I-155] | < 10 | < 10 | – | < 10
C=CC(=O)Nc1cccc(Nc2nc(Nc3ccc(N4CCS(=O)(=O)CC4)nc3)ncc2F)c1 [Compound I-72, N-(3-(5-fluoro-2-(6-(1,1-dioxidothiomorpholin-4-yl)pyridin-3-ylamino)pyrimidin-4-ylamino)phenyl)acrylamide] | < 10 | < 10 | – | < 10
COCCOc1ccc(Nc2ncc(F)c(Nc3cccc(NC(=O)/C=C/CN4CC[C@H](O)C4)c3)n2)cc1 [Compound I-88, (S,E)-N-(3-(5-fluoro-2-(4-(2-methoxyethoxy)phenylamino)pyrimidin-4-ylamino)phenyl)-4-(3-hydroxypyrrolidin-1-yl)but-2-enamide] | < 10 | 10 to 100 | 10 to 100 | –
C=CC(=O)Nc1cccc(Nc2nc(Nc3cccc(OCCCNC(=O)CCCC(=O)NCCCOCCOCCOCCCNC(=O)CCCC[C@H]4SC[C@H]5NC(=O)N[C@H]54)c3)ncc2C)c1 [Compound I-215, N^1-(3-(3-(4-(3-acrylamidophenylamino)-5-methylpyrimidin-2-ylamino)phenoxy)propyl)-N^5-(15-oxo-19-((3aR,4R,6aS)-2-oxohexahydro-1H-thieno[3,4-d]imidazol-4-yl)-4,7,10-trioxa-14-azanonadecyl)glutaramide] | < 10 | 10 to 100 | 10 to 100 | –

Second part, the compound after the results:

IC50 (BTK) [nM] | IC50 (ITK) [nM] | IC50 (EGFR-WT) [nM] | IC50 (EGFR-WT; [1]) [nM] | Structure (SMILES)
< 10 | 10 to 100 | 100 to 1000 | – | C=CC(=O)Nc1cccc(Nc2nc(Nc3ccc(Cl)c(O[C@@H](C)CO)c3)ncc2F)c1 [Compound I-357, (S)—N-(3-(2-(4-chloro-3-(1-hydroxypropan-2-yloxy)phenylamino)-5-fluoropyrimidin-4-ylamino)phenyl)acrylamide]
< 10 | 10 to 100 | 10 to 100 | – | C=CC(=O)Nc1cccc(Nc2nc(Nc3ccc(Cl)c(OCC(O)CO)c3)ncc2F)c1 (stereo not drawn) [Compound I-353, N-(3-(2-(4-chloro-3-(2,3-dihydroxypropoxy)phenylamino)-5-fluoropyrimidin-4-ylamino)phenyl)acrylamide]
< 10 | < 10 | 10 to 100 | – | C=C(C)C(=O)Cc1ccc(Nc2nc(Nc3ccc(OCCOC)c(F)c3)ncc2F)cc1 [Compound I-329, 1-(4-(5-fluoro-2-(3-fluoro-4-(2-methoxyethoxy)phenylamino)pyrimidin-4-ylamino)phenyl)-3-methylbut-3-en-2-one]
< 10 | < 10 | 10 to 100 | – | C=C(C)C(=O)c1ccc(Nc2nc(Nc3ccc(OCCOC)c(F)c3)ncc2F)cc1 [Compound I-324, 1-(4-(5-fluoro-2-(3-fluoro-4-(2-methoxyethoxy)phenylamino)pyrimidin-4-ylamino)phenyl)-2-methylprop-2-en-1-one]
< 10 | < 10 | 10 to 100 | – | C=C(C)C(=O)c1cccc(Nc2nc(Nc3ccc(OCCOC)c(F)c3)ncc2F)c1 [Compound I-322, 1-(3-(5-fluoro-2-(3-fluoro-4-(2-methoxyethoxy)phenylamino)pyrimidin-4-ylamino)phenyl)-2-methylprop-2-en-1-one]
< 10 | < 10 | 10 to 100 | – | C=CC(=O)Nc1cccc(Nc2nc(Nc3ccc(OCCOCCOC)c(F)c3)ncc2F)c1 [Compound I-359, N-(3-(5-fluoro-2-(3-fluoro-4-(2-(2-methoxyethoxy)ethoxy)-phenylamino)pyrimidin-4-ylamino)phenyl)acrylamide]
< 10 | 10 to 100 | 10 to 100 | – | C=CC(=O)Nc1cccc(Nc2nc(Nc3ccc(Cl)c(OC(C)CO)c3)ncc2F)c1 (stereo not drawn) [Compound I-337, N-(3-(2-(4-chloro-3-(1-hydroxypropan-2-yloxy)phenylamino)-5-fluoropyrimidin-4-ylamino)phenyl)acrylamide]
< 10 | 10 to 100 | 100 to 1000 | – | C=CC(=O)Nc1cccc(Nc2nc(Nc3ccc(OCCOCCNC(=O)OC(C)(C)C)c(F)c3)ncc2F)c1 [Compound I-356, tert-butyl 2-(2-(4-(4-(3-acrylamidophenylamino)-5-fluoropyrimidin-2-ylamino)-2-fluorophenoxy)ethoxy)ethylcarbamate]
< 10 | 100 to 1000 | 100 to 1000 | – | C=CC(=O)Nc1cccc(Nc2nc(Nc3ccc(Cl)c(O[C@H]4CCOC4)c3)ncc2F)c1 [Compound I-354, (S)—N-(3-(2-(4-chloro-3-(tetrahydrofuran-3-yloxy)phenylamino)-5-fluoropyrimidin-4-ylamino)phenyl)acrylamide]
< 10 | 10 to 100 | 10 to 100 | – | C=CC(=O)Nc1cccc(Nc2nc(Nc3ccc(OC(C)CO)c(F)c3)ncc2F)c1 (stereo not drawn) [Compound I-333, N-(3-(5-fluoro-2-(3-fluoro-4-(1-hydroxypropan-2-yloxy)phenylamino)pyrimidin-4-ylamino)phenyl)acrylamide]
< 10 | 10 to 100 | 10 to 100 | – | C=CC(=O)Nc1cccc(Nc2nc(Nc3ccc(OC[C@@H]4C[C@@H](O)CN4)c(F)c3)ncc2F)c1 [Compound I-355]
